Laboratory results taken from patent US8519173B2, “Plant growth regulator” (Shiseido Company, Ltd., priority 2009, dated 2013).

Assays:
[1] = tested on: morning glory (variety: Murasaki); test: Bud formation promotion activity on morning glory; format: in vivo; details: sprayed at 100 μM; treatment in dark 14 h or 15 h; buds measured on day 14 under continuous light at 25° C.; N=8 plants; compared with water (FIG. 1)
Procedure: 9 g of morning glory (variety: Murasaki) seeds were treated with concentrated sulfuric acid for 20 minutes followed by allowing to stand overnight in running water. Next, the seeds were allowed to take root by allowing to stand for 24 hours on wet sea sand with the omphalos portion of the seed facing upward. The seeds that had taken root were planted to a depth of about 1.5 cm to 2.0 cm in sea sand and cultured under continuous light (for about 5 days).
All of the morning glory plants that foliated as a result of this culturing were transferred to a culture broth (containing KNO3 (250 mg), NH4NO3 (250 mg), KH2PO4 (250 mg), MgSO4.7H2O (250 mg), MnSO4.4H2O (1 mg), Fe-citrate-n-hydrate (6 mg), H3BO3 (2 mg), CuSO4.5H2O (0.1 mg), ZeSO4.7H2O (0.2 mg), Na2MoO4.2H2O (0.2 mg) and Ca(H2PO4)2.2H2O (250 mg) in 1000 mL of distilled water).
0.10 μM and 100 μM aqueous solutions of the present ketol fatty acid derivative obtained in the aforementioned Example 1 were sprayed onto this culture system and subjected to treatment in dark for 14 hours or 15 hours. Following this treatment in dark, water or the present ketol fatty acid derivative was sprayed again followed by growing the plants under continuous light for 14 days at 25° C. and measuring the buds that formed on day 14. […]

[2] = Stability on standing at room temperature; format: physicochemical; details: allowed to stand at room temperature

Structure (SMILES)	increase in number of buds that formed [1]	stability (loss of activity) [2]
CC/C=C\CC1CC1CC(=O)C(O)CCCCCCCC(=O)O (centres unmarked)	more than 200%	
CC/C=C\C/C=C\CC(=O)C(O)CCCCCCCC(=O)O (stereo not drawn) [α-ketol unsaturated fatty acid]		losing activity in a few days
